The record followed here is PMC11769049, “Phytomedicine Potential of Oroxylum indicum Root and Its Constituents: Targeting Alzheimer’s Disease” (Plants, 2025).

Experiment [1] deals with T1, Electric eel-type VI-S AChE (Electrophorus electricus, UniProt O42275).
T1 construct: purchased
As to the kind of experiment: AChE inhibition, modified Ellman's method. In kind it is biochemical. As for the experimental part:
The anti-acetylcholinesterase activity of the extract of O. indicum root and its three constituent compounds was evaluated using a modified Ellman’s method. A microplate-based assay was conducted in triplicate, comprising (i) 25 µL of 1 mM acetylthiocholine iodide, (ii) 50 µL of 0.1 M phosphate buffer (PBS), (iii) 25 µL of the sample, and (iv) 125 µL of 1 mM dithiobisnitrobenzoic acid. Electric eel-type VI-S AChE (0.2 Units/mL) was added. The control group lacked both the sample and enzyme. […] Tacrine served as a reference standard. Enzymatic activity and percent inhibition were assessed. The following equation was used to determine inhibitory activity:Percentage inhibition = [(AE − As)/(AE − AC)] × 100 where AE, AC, and As represent the enzymatic activities of the enzyme, control, and sample, respectively. The AChE inhibitory activity of the samples was expressed as the half-maximal inhibitory concentration (IC50).

For a further experiment, the system named is Bax. The experiment is described as follows: Western blot of Bax in H2O2-exposed SH-SY5Y cells. As to conditions: 250 μM H2O2, pretreatment with extract (1, 3, 10 µg/mL) or baicalein (1, 3, 10 µM). Type of experiment: cell-based, Human. As for the experimental part:
(§1) Neuronal cells were pretreated with the extract (1, 3, and 10 µg/mL) or baicalein (1, 3, and 10 µM) for 30 min, followed by induction of oxidative stress with hydrogen peroxide (H2O2). […] NAC (100 µg/mL) was used for the standard substance. For the experiment, SH-SY5Y cells (1 × 10^5 cells/well) were seeded onto a 6-well plate and cultured for 2 days. […] After washing unabsorbed chemicals, the cells were exposed to 250 μM H2O2 for 5 min. Treated cells were lysed with an ice-cold lysis solution. The supernatant was obtained after centrifuging the lysate at 13,500 rpm for 10 min at 4 °C. The Bradford test was used to determine the total protein content. Proteins were separated on a polyvinylidene difluoride membrane using SDS-PAGE. After blocking with BlockAce, the membrane was probed with primary antibodies against BAX, cleaved caspase-3, pTau, and BACE1. Secondary antibodies coupled with horseradish peroxidase were used for detection, followed by enhanced chemiluminescence.
In general terms: Immunoblotting shows a protein as a band on a membrane.

A further experiment has as its system cleaved caspase-3. The experiment is described as follows: Western blot of cleaved caspase-3 in H2O2-exposed SH-SY5Y cells. Type of experiment: cell-based, Human. As to conditions: 250 μM H2O2, pretreatment with extract (1, 3, 10 µg/mL) or baicalein (1, 3, 10 µM). As for the experimental part:
as §1

The test system of the next experiment is BACE1. The experiment is described as follows: Western blot of BACE1 in H2O2-exposed SH-SY5Y cells. Type of experiment: cell-based, Human. Conditions: 250 μM H2O2, pretreatment with extract (1, 3, 10 µg/mL) or baicalein (1, 3, 10 µM). Here is the method: as §1
Experiment [2] has as its system phosphorylated tau protein. The experiment is described as follows: Western blot of phosphorylated tau in H2O2-exposed SH-SY5Y cells. Type of experiment: cell-based, Human. As to conditions: 250 μM H2O2, pretreatment with extract (1, 3, 10 µg/mL) or baicalein (1, 3, 10 µM). Here is the method: as §1
The nature of experiment [3]: DPPH radical scavenging method. Conditions: for IC50: read-out: IC50 DPPH, mean ± SD (n = 3). In general terms: DPPH is a stable violet radical that fades when it is reduced.
Experimental: After 30 min incubation period, the absorbance at 520 nm was measured using a microplate reader. The DPPH radical scavenging ability was calculated according to the following equation:Percentage inhibition = [(ADPPH − Asample)/(ADPPH − Acontrol)] × 100 where ADPPH, Asample, and Acontrol are the absorbance values of DPPH solution, sample, and control, respectively.
In another experiment the target is Aβ1–42 (Homo sapiens, UniProt P05067). As to the kind of experiment: Aβ1–42 aggregation inhibition, thioflavin-T (ThT) fluorescence assay.
Chain of Aβ1–42 (P05067 672-713 limits assumed): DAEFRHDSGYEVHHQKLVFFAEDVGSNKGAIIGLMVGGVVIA

The structures appear in SMILES notation.

T1 sequence (O42275 24-633): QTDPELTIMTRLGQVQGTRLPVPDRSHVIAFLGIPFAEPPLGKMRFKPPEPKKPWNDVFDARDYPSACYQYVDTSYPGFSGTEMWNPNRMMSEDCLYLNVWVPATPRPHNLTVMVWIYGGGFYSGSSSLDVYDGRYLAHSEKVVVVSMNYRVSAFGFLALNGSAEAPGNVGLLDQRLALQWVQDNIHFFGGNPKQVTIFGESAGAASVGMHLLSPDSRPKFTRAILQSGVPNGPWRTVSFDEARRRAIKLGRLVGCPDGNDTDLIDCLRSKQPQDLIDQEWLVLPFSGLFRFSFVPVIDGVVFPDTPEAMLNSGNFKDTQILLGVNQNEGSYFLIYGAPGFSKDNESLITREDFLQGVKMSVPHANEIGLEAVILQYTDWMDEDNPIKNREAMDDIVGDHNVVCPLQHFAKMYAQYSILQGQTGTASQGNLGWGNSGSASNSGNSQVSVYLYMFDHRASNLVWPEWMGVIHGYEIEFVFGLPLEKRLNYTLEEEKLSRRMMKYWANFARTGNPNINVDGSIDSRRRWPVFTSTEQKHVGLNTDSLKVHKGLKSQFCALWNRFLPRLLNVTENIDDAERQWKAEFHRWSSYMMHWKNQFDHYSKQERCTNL
Experimental for Aβ1–42: The aggregation of Aβ1–42 was monitored using a thioflavin-T (ThT) fluorescence assay [58]. […] Following a 48 h incubation period, the mixtures were treated with 175 µL of 5 µM ThT solution prepared in a glycine/NaOH buffer at pH 8.5.

On to `O=c1cc(-c2ccccc2)oc2cc(O)c(O)c(O)c12` [Baicalein], for which the IC50 in experiment [1] was 159 ± 1.15 µM; in experiment [3] it was 19.08 ± 0.17 µM. Moreover, in the experiment with Bax, the “expression of pro-apoptotic protein Bax” value is “significantly downregulated”. Moreover, the “expression of cleaved caspase-3” value with cleaved caspase-3 is reported as “significantly downregulated”. In the experiment with BACE1, the “BACE1 expression (H2O2-induced increase)” value is on record as “effectively mitigated this increase”. The “levels of phosphorylated tau protein” value in experiment [2] is reported as “significantly reduced”.

On to `O=c1cc(-c2ccccc2)oc2cc(O)cc(O)c12` [Chrysin], for which the IC50 in experiment [1] is 45.9 ± 1.32 µM; in experiment [3], 63.3 ± 0.89 µM; on Aβ1–42, 5.86 ± 0.16 µM.

As for `COc1c(O)cc2oc(-c3ccccc3)cc(=O)c2c1O` [Oroxylin A], the figures for the IC50 (in experiment [1]; in experiment [3]; at Aβ1–42) were 86.9 ± 1.85 µM, over 100 µM and 8.19 ± 0.28 µM, respectively. In addition, the “DPPH radical scavenging activity” value in experiment [3] (up to 100 µg/mL) is reported as “minimal DPPH radical scavenging activity”.

For the molecule `Cc1c(C)c2c(c(C)c1O)CCC(C)(C(=O)O)O2` (centres unmarked) [Trolox, reference compound], the IC50 in experiment [3] is 29.8 ± 1.59 µM.

What is called IC50 is the concentration needed to halve the response being measured.
